Measured values: ChEMBL document CHEMBL5052853, “Isoxazole derivatives targeting tacc3 as anticancer agents” (2021)
The source made the active and inactive calls. The calls are words filed in the database; no cut-off is given here.

Key:
Type in all cases: functional, cell-based
[1] = test system: JIMT-1; assay: Antiproliferative activity against human JIMT-1 cells after 72 hrs by SRB assay; settings: JIMT-1, 72 h
[2] = test system: MCF-12A; assay: Antiproliferative activity against human MCF-12A cells
[3] = test system: JIMT-1; assay: Induction of DNA damage in human JIMT-1 cells at high concentration assessed as change in p-H2AX levels and measured by Western blot analysis
[4] = test system: JIMT-1; assay: Induction of mitotic arrest in human JIMT-1 cells at high concentration assessed as change in p-histone H3 levels and measured by Western blot analysis
[5] = test system: JIMT-1; assay: Induction of apoptosis in human JIMT-1 cells at high concentration assessed as change in cleaved caspase-3 levels and measured by Western blot analysis
[6] = test system: RT-4; assay: Antiproliferative activity against human RT-4 cells after 3 days by SRB assay; settings: RT-4, 72 h
[7] = test system: JIMT-1; assay: Induction of apoptosis in human JIMT-1 cells at high concentration assessed as change in cleaved PARP levels and measured by Western blot analysis
[8] = test system: RT-112; assay: Antiproliferative activity against human RT-112 cells after 3 days by SRB assay; settings: RT-112, 72 h

Structure (SMILES) | IC50 [1] [nM] | other results
COc1cccc(-c2cc(Nc3ccnc(N4CCOCC4)n3)on2)c1 | 3440 | 
Oc1ccc(-c2cc(Nc3ccnc(N4CCOCC4)n3)on2)cc1 | > 10000 | 
COc1ccc(-c2cc(Nc3ccnc(N4CCCCC4)n3)on2)cc1 | 116 | 
CC(C)c1ccc(-c2cc(Nc3ccnc(N4CCOCC4)n3)on2)cc1 | 3610 | 
c1ccc(-c2cc(Nc3ccnc(N4CCOCC4)n3)on2)cc1 | > 10000 | 
COc1ccc(-c2cc(Nc3ccnc(N4CCC(C(F)(F)F)CC4)n3)on2)cc1 | 56 | 
Fc1ccc(-c2cc(Nc3ccnc(N4CCOCC4)n3)on2)cc1 | > 10000 | 
CCc1ccc(-c2cc(Nc3ccnc(N4CCOCC4)n3)on2)cc1 | 259 | 
COc1ccc(-c2cc(Nc3ccnc(N4C5CCC4COC5)n3)on2)cc1F | 53 | 
COc1ccc(-c2cc(Nc3ccnc(N4CCC(CCO)CC4)n3)on2)cc1 | 3970 | 
COc1ccc(-c2cc(Nc3ccnc(N4CCCC4)n3)on2)cc1 | 105 | 
COc1ccc(-c2cc(N(C)c3ccnc(N4CCOCC4)n3)on2)cc1 | 160 | 
FC(F)(F)Oc1ccc(-c2cc(Nc3ccnc(N4CCOCC4)n3)on2)cc1 | > 10000 | 
COc1ccc(-c2cc(Nc3ccnc(N4CCC(F)CC4)n3)on2)cc1F | 145 | 
CCCOc1ccc(-c2cc(Nc3ccnc(N4CCOCC4)n3)on2)cc1 | > 10000 | 
COc1ccc(-c2cc(Nc3ccnc(N4C5CCC4COC5)n3)on2)cc1 | 160 | 
COc1ccc(-c2cc(Nc3ccnc(N4CCOCC4)n3)on2)cc1Cl | 480 | 
COc1ccc(-c2cc(Nc3ccnc(N4CC5CCC(C4)O5)n3)on2)cc1 | 3090 | 
COc1ccc(-c2cc(Nc3cc(C)nc(N4CCC(F)CC4)n3)on2)cc1 | 1000 | 
COc1ccc(-c2cc(Nc3ccnc(N4CCNCC4)n3)on2)cc1 | > 10000 | 
COc1ccc(-c2cc(Nc3ccnc(N4CCOCC4)n3)on2)cc1OC | 730 | 
CCOc1ccc(-c2cc(Nc3ccnc(N4CCOCC4)n3)on2)cc1 | 810 | 
COc1ccc(-c2cc(Nc3ccnc(N4CCC(F)(F)CC4)n3)on2)cc1 | 370 | 
COc1ccc(-c2cc(Nc3ccnc(N4CCCC4)n3)on2)cc1F | 49 | 
FC(F)(F)c1ccc(-c2cc(Nc3ccnc(N4CCOCC4)n3)on2)cc1 | > 10000 | 
COc1ccc(-c2cc(Nc3ccnc(N4CCOCC4)n3)on2)cc1F | 13 | 

Structure (SMILES) | IC50 [1] [nM] | other results
CCN(Cc1ccncc1)Cc1c(O)ccc2c(-c3cc4ccccc4oc3=O)cc(=O)oc12 |  | IC50 [2]: > 10000 nM; Activity [3]: Active; Activity [4]: Active; Activity [5]: Active; IC50 [6]: 5250 nM; Activity [7]: Active; IC50 [8]: 1200 nM
COc1ccc(-c2cc(Nc3ccnc(N4CCC(NN5CCOCC5)CC4)n3)on2)cc1 | 800 | 
COc1ccc(-c2cc(Nc3ccnc(N4CCN(C)CC4)n3)on2)cc1 | 1560 | 
COc1ccc(-c2cc(Nc3ccnc(N4C[C@@H]5C[C@H]4CO5)n3)on2)cc1 | 2020 | 
FC(F)Oc1ccc(-c2cc(Nc3ccnc(N4CCOCC4)n3)on2)cc1 | 4230 | 
Clc1ccc(-c2cc(Nc3ccnc(N4CCOCC4)n3)on2)cc1 | > 10000 | 
COc1ccc(-c2cc(Nc3ccnc(N4CCC(C(=O)O)CC4)n3)on2)cc1 | > 10000 | 
COc1ccc(-c2cc(Nc3ccnc(N4CCC(F)CC4)n3)on2)cc1 | 130 | 
CN(C)c1ccc(-c2cc(Nc3ccnc(N4CCC(F)CC4)n3)on2)cc1 | 157 | 
COc1ccc(-c2cc(Nc3ccnc(N4C[C@H]5C[C@@H]4CO5)n3)on2)cc1 | 480 | 
COc1ccc(-c2cc(Nc3ccnc(N4CCS(=O)(=O)CC4)n3)on2)cc1 | > 10000 | 
COc1ccccc1-c1cc(Nc2ccnc(N3CCOCC3)n2)on1 | 8270 | 
c1cc(Nc2cc(-c3ccc4c(c3)OCO4)no2)nc(N2CCOCC2)n1 | 870 | 
COc1ccc(-c2cc(Nc3ccnc(N4CCC(C)CC4)n3)on2)cc1 | 204 | 
CSc1ccc(-c2cc(Nc3ccnc(N4CCOCC4)n3)on2)cc1 | 30 | 
COc1ccc(-c2cc(Nc3ccnc(N4CCSCC4)n3)on2)cc1 | 113 | 
COc1ccc(-c2cc(Nc3nc(N4CCC(F)CC4)ncc3F)on2)cc1 | 540 | 
CC(C)CNc1ccnc(NCc2csc(-c3ccccc3)n2)n1 |  | IC50 [2]: > 10000 nM; Activity [3]: Active; Activity [4]: Active; Activity [5]: Active; IC50 [6]: 7070 nM; Activity [7]: Active; IC50 [8]: 8710 nM
Cc1ccc(-c2cc(Nc3ccnc(N4CCOCC4)n3)on2)cc1 | 640 | 
c1ccc(COc2ccc(-c3cc(Nc4ccnc(N5CCOCC5)n4)on3)cc2)cc1 | > 10000 | 
COc1ccc(-c2cc(Nc3ccnc(N4C[C@@H](C)O[C@@H](C)C4)n3)on2)cc1 | 230 | 
COc1ccc(-c2cc(Nc3ccnc(N4CCOCC4)n3)on2)cn1 | 7300 | 
CCOC(=O)C1CCN(c2nccc(Nc3cc(-c4ccc(OC)cc4)no3)n2)CC1 | > 10000 | 
CC(F)(F)c1ccc(-c2cc(Nc3ccnc(N4CCOCC4)n3)on2)cc1 | > 10000 | 
CN(C)c1ccc(-c2cc(Nc3ccnc(N4CCOCC4)n3)on2)cc1 | 120 | 
COc1ccc(-c2cc(Nc3ccnc(N4CCN(CCO)CC4)n3)on2)cc1 | > 10000 | 
